Measurements as given in publication PMC9246096, “Structure-activity relationship studies for inhibitors for vancomycin-resistant Enterococcus and human carbonic anhydrases” (Journal of Enzyme Inhibition and Medicinal Chemistry, 2022).
In brackets after ≈: the same amount, converted by molar mass. Several values for one entry are separate records, joined by “and”; a condition that tells them apart may be missing. Identical values can stand only once. Like-named read-outs stand apart in the source and are kept apart here.

Key:
[1] = target: human CA II (hCAII); design: method as in PMID 24316122; conditions: previously reported; read-out: Ki hCA II; cited from earlier work
[2] = target: human CA I (hCAI); design: method as in PMID 24316122; conditions: previously reported; read-out: Ki hCA I; cited from earlier work
[3] = target: E. faecium α-CA (Efα-CA) (Enterococcus faecium, UniProt Q3XYE8); format: biochemical
Protocol: (§1) Both Efα-CA and Efγ-CA were recombinantly expressed and purified as follows. A pHis2 plasmid (GenScript) containing either the Efα-CA sequence or Efγ-CA sequence was used for the expression of hexa-histidine tagged protein in a bacterial culture. […] Starter cultures were grown at 37 °C with shaking at 225 rpm overnight. One litre of autoclaved Luria-Bertani broth containing 100 µg/mL ampicillin and 1 mM ZiCl2 was inoculated with a 10-ml aliquot of the starter culture and grown at 37 °C with shaking at 225 rpm to an OD of 0.8 before being cold shocked and induced with 500 µL of IPTG (1 M). The induced cultures were grown for 16 h at 17 °C with shaking at 225 rpm. Bacterial cell pellets were spun down at 4000 g for 20 min and resuspended in 1× PBS containing 0.5 mM TCEP, 5% glycerol, pH = 7.4 to which 5 mg lysozyme was added to aid in lysis. The resuspended bacterial cells were incubated on ice for 20 min and then lysed via sonication. Lysed bacterial cells were pelleted by centrifugation at 14,000 g for 1 h to remove cellular debris, and the supernatant was loaded onto a nickel-NTA column equilibrated with 1x PBS containing 0.5 mM TCEP, 5% glycerol, pH = 7.4. Once flowthrough was collected, the protein was eluted using a 0–500 mM imidazole stepwise gradient in the same equilibration buffer, and fractions were collected. Fractions that contained the desired protein, as determined by SDS-PAGE, were combined and subjected to TEV protease for His-tag cleavage. After the addition of TEV, the protein was dialysed for 4 h against 1× PBS containing 0.5 mM TCEP, 5% glycerol, pH = 7.4. The dialysed protein solution was loaded back onto a nickel-NTA column equilibrated with 1x PBS containing 0.5 mM TCEP, 5% glycerol, pH = 7.4 for the subtraction of TEV followed by its elution with the same buffer containing 500 mM imidazole. The protein eluted prior to the imidazole was concentrated using Amicon Ultra Centrifugal Filters and purified by size-exclusion chromatography (SEC) on an S100 column using running buffer 1x PBS containing 0.5 mM TCEP, 5% glycerol, pH = 7.4. Fractions that contained the protein of interest as confirmed by SDS-PAGE were concentrated, flash frozen, and placed in −80 °C for future use.
(§2) The assay was performed according to previously published protocols. Recombinant Efα-CA and Efγ-CA was obtained as described above and hCA I and hCA II were purchased from Millipore Sigma (hCA I Catalog# C4396-5MG; hCA II Catalog #C6624-500UG). Ki values were determined from inputting the IC50 values into the Cheng–Prusoff equation[25] for Ki from catalytic inhibition constants.

[4] = target: E. faecium γ-CA (Efγ-CA) (Enterococcus faecium, UniProt Q3XX77); test: biochemical; format: biochemical
Protocol: as §1, §2

[5] = test system: VRE strains; conditions: full data set published by Kaur et al.; cited from earlier work
[6] = recombinant Efα-CA; Ki from IC50 via Cheng–Prusoff; read-out: Ki Efα-CA
[7] = recombinant Efγ-CA, Ki from IC50 via Cheng–Prusoff, read-out: Ki Efγ-CA
[8] = read-out: Ki Efα-CA; recombinant Efα-CA; Ki from IC50 via Cheng–Prusoff
[9] = Ki Efγ-CA, recombinant Efγ-CA, Ki from IC50 via Cheng–Prusoff

Sequence of E. faecium γ-CA (Efγ-CA) (Q3XX77 entry or part of it): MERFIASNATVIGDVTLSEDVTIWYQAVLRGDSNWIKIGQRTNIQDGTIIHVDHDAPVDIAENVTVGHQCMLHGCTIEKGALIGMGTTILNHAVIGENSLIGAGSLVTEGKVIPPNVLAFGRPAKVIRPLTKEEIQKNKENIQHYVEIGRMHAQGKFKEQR
Sequence of E. faecium α-CA (Efα-CA) (Q3XYE8 entry or part of it): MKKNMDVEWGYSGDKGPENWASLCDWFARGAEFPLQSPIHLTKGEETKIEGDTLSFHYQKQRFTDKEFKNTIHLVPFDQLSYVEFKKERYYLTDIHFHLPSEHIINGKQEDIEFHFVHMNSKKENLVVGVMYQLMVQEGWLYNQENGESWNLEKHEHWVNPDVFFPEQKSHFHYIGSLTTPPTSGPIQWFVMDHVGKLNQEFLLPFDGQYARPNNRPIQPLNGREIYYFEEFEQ

| Ki [3, 6] [nM] | Ki [4, 7] [nM] | SMILES | Ki [1] [nM] | Ki [2] [nM] | Ki [3, 8] [nM] | Ki [4, 9] [nM] | further results |
| --- | --- | --- | --- | --- | --- | --- | --- |
| 27.2 | 286 | NS(=O)(=O)c1nnc(NC(=O)C2CCC2)s1 [Cmpd 9] | 41.5 | 125 |  |  |  |
|  |  | CC(C)C(=O)Nc1nnc(S(N)(=O)=O)s1 [Cmpd 2] |  | 180 | 23.7 | 218 |  |
| 29.6 | 345 | CC1CCC(C(=O)Nc2nnc(S(N)(=O)=O)s2)CC1 (stereo not shown) [Cmpd 13] | 26 | 152 |  |  |  |
|  |  | NS(=O)(=O)c1nnc(NCC2CCCCC2)s1 [Cmpd 27] |  | 1140 | 117 | 398 |  |
| 78.8 | 632 | CCCCCCC(=O)Nc1nnc(S(N)(=O)=O)s1 [Cmpd 7] | 22.7 | 328 |  |  | MIC [5]: 0.015 µg/mL (≈ 0.0513 µM) |
| 163 | 282 | NS(=O)(=O)c1nnc(NCc2ccccc2)s1 [Cmpd 28] |  | 1620 |  |  |  |
| 18.4 | 408 | NS(=O)(=O)c1nnc(NC(=O)CC2CCC2)s1 [Cmpd 16] | 4.9 | 77.8 |  |  |  |
| 9.8 | 195 | NS(=O)(=O)c1nnc(NC(=O)C2CCCC2)s1 [Cmpd 10] | 26.2 | 76.5 |  |  |  |
| 11.7 | 311 | NS(=O)(=O)c1nnc(NC(=O)CC2CC2)s1 [Cmpd 15] | 7.6 | 372 |  |  |  |
|  |  | NS(=O)(=O)c1nnc(NC(=O)CN2CCOCC2)s1 [Cmpd 24] |  |  |  | 56.4 |  |
| 44.5 | 240 | CC1(C(=O)Nc2nnc(S(N)(=O)=O)s2)CCCCC1 [Cmpd 12] | 47.7 | 117 |  |  |  |
|  |  | CCNc1nnc(S(N)(=O)=O)s1 [Cmpd 26] |  | 701 | 165 | 505 |  |
| 38.1 | 92.8 | NS(=O)(=O)c1nnc(NC(=O)CN2CCCC2)s1 [Cmpd 22] | 58.1 | 64.7 |  |  |  |
|  |  | CN1CCN(CC(=O)Nc2nnc(S(N)(=O)=O)s2)CC1 [Cmpd 25] |  |  | 81.5 | 64.7 |  |
| 39.3 | 245 | NS(=O)(=O)c1nnc(NC(=O)CCC2CCCC2)s1 [Cmpd 19] | 10.2 | 190 |  |  |  |
| 62.7 | 279 | CC(C)CC(=O)Nc1nnc(S(N)(=O)=O)s1 [Cmpd 5] | 55.6 | 215 |  |  |  |
|  |  | CC(C)(C)C(=O)Nc1nnc(S(N)(=O)=O)s1 [Cmpd 3] |  | 167 | 29.8 | 441 |  |
| 29.5 | 111 | NS(=O)(=O)c1nnc(NC(=O)CN2CCCCC2)s1 [Cmpd 23] | 20.9 | 53.4 |  |  |  |
|  |  | NS(=O)(=O)c1nnc(NC(=O)c2ccccc2)s1 [Cmpd 14] |  | 109 |  | 94.8 |  |
|  |  | NS(=O)(=O)c1nnc(NC(=O)CCc2ccccc2)s1 [Cmpd 21] |  | 855 |  |  |  |
| 36.2 | 193 | NS(=O)(=O)c1nnc(NC(=O)C2CC2)s1 [Cmpd 8] | 24.6 | 157 |  |  |  |
|  |  | CCCC(=O)Nc1nnc(S(N)(=O)=O)s1 [Cmpd 4] |  |  | 50.1 | 325 |  |
|  |  | CCC(=O)Nc1nnc(S(N)(=O)=O)s1 [Cmpd 1] |  |  | 37.5 | 250 |  |
|  |  | NS(=O)(=O)c1nnc(NC(=O)C2CCCCC2)s1 [Cmpd 11] |  | 63.3 | 49.3 | 131 |  |
|  |  | NS(=O)(=O)c1nnc(NC(=O)CCC2CCCCC2)s1 [Cmpd 20] |  | 946 |  | 346 | MIC [5]: 0.007 µg/mL (≈ 0.022 µM) |
|  |  | NS(=O)(=O)c1nnc(NC(=O)CC2CCCCC2)s1 [Cmpd 18] |  | 58.7 | 14.5 | 305 |  |
|  |  | CC(=O)Nc1ccc(S(N)(=O)=O)cc1 [Cmpd 30] | 67.7 | 1330 |  |  | Ki ([3]; read-out: Ki Efα-CA): 180 nM; Ki ([4]; read-out: Ki Efγ-CA): 529 nM |
| 69.6 | 389 | CC(C)(C)CC(=O)Nc1nnc(S(N)(=O)=O)s1 [Cmpd 6] | 7.3 | 231 |  |  | MIC [5]: 0.015 µg/mL (≈ 0.0539 µM) |

| SMILES | Ki [3, 6] [nM] | Ki [4, 7] [nM] | Ki [1] [nM] | Ki [2] [nM] | Ki [3, 8] [nM] | Ki [4, 9] [nM] | further results |
| --- | --- | --- | --- | --- | --- | --- | --- |
| NS(=O)(=O)c1nnc(NC(=O)CC2CCCC2)s1 [Cmpd 17] | 21.9 | 233 | 19.4 | 86.3 |  |  | fold reduced potency against Efα-CA ([3]; compared to matched molecular paired analog 10): about 2 fold |
| CC(=O)Nc1ncc(S(N)(=O)=O)s1 [Cmpd 29] | 375 | 1130 | 97.2 | 465 |  |  | fold reduction in binding affinity against Efα-CA ([3]; compared to AZM): 6 fold and 7 fold; fold reduction in binding affinity against Efγ-CA ([4]; compared to AZM): 3.5 fold |
